The target in one experiment is SMARCA2 (Homo sapiens, UniProt P51531). Put plainly: MSD SMARCA2 degradation in NCI-H1299 cell line (24 h). The note with it: for Dmax: NCI-H1299, NCI-H1299 cells; for DC50: NCI-H1299 cells, read-out: SMARCA2 MSD H1299 degradation 24 h: External Abs-DC50. Details: HC: NCI-H1299 cells treated with DMSO; host or cells: NCI-H1299. Format: cell-based. The essentials:
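NCI-H1299 cells treated 24 h with a 3-fold, 9-point compound dilution series, then lysed in RIPA with protease inhibitor. SMARCA2 in lysate-coated MSD plates detected with rabbit anti-SMARCA2 (0.3 ug/ml) and SULFO-TAG secondary. Relative SMARCA2 level normalized between DMSO-treated H1299 cells and SMARCA2-negative A2780 cells; Dmax % binned A–D.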

Another experiment addresses T1, SMARCA4 (Homo sapiens, UniProt P51532).
T1 construct: SMARCA2 and SMARCA4 protein degradation in MV4-11 cells; endogenous in cells; host or cells: MV4-11
Put plainly: SMARCA4 Western blot MV4-11 degradation. Format: cell-based. The note with it: 24 h; for Dmax: MV4-11, MV4-11 cells, read-out: SMARCA4 WB MV411 degradation 24 h: Average Dmax %; for DC50: MV4-11 cells, read-out: SMARCA4 WB MV411 degradation 24 h: Average external-Abs DC50. Here is the method:
Cells were seeded into 6-well plates (MV4-11: 4×10^6 cells/well/1 ml) and 1 ml of 2× compound solution was added into the well to make the final concentration and the plates were mixed well and incubated for 24 hours (No cytotoxicity was observed). The cell were collected with media and spun at 3000 rpm for 5 minutes. The supernatant was aspirated and the well and the cells were washed with cold PBS once and combined for centrifugation again; the supernatant aspirated again. 200 ul pre-chilled RIPAlysis buffer (Boston BioProducts BP-115D) with protease/phosphatase inhibitor (Roche 05892791001/Roche 04906837001) was directly added into the tube to lyze the cells for 20 minutes on ice. The cell lysate were collected into EP tubes and spun at 13000 rpm for 20 minutes and 72 ul supernatant was transferred to a fresh EP tube containing 18 ul of 5× loading buffer (Beyotime Bio P0015) to make the loading samples. The samples were heated to 100° C. for 10 minutes and cooled to RT and microcentrifuged. 20 ul of samples were loaded onto SDS-PAGE gel (Novex, WG1402BOX) and the gel was run at 80 V for 20 minutes and 120 V for 1.5 hours. The samples were electrotransfer to a NC membrane using wet-transfer method with 250 mA for 2.5 hours. The membrane was blocked with LICOR blocking buffer (LI-COR, 927-50000) for 1 hour. The membrane was washed three times with TBST (CST #9997S), 5 minutes each. Incubation was performed with primary antibody prepared in blocking buffer with 0.1% Tween-20 (Solarbio, P8220) at 4° C. overnight (Anti-SMARCA2/BRM antibody (ab15597) 1:500; Anti-BRG1 antibody [EPR3912] (ab108318) 1:1000; Rabbit anti-Baf180 antibody [EPR15860] (Abcam, ab196022) 1:1000; mouse anti-beta-Actin (8H10D10) (CST #3700) 1:10000). The membrane was washed three times with TBST, 5 minutes each. Incubation with secondary antibody was performed for 1 hour at RT (anti-rabbit IgG (Licor, 926-32211) 1:5000; anti-mouse IgG (LI-COR, 926-68070) 1:5000). The membrane was washed three times with TBST, 5 minutes each and lastly the LiCOR was read.
The letter codes for the percentage of SMARCA degradation after 24 hours (Dmax %) include: A (>90% degradation), B (>70-90% degradation), C (50-70% degradation), and D (<50% degradation).
Background: In western blotting, separated proteins are transferred to a membrane and probed.

T1 sequence (P51532 whole entry): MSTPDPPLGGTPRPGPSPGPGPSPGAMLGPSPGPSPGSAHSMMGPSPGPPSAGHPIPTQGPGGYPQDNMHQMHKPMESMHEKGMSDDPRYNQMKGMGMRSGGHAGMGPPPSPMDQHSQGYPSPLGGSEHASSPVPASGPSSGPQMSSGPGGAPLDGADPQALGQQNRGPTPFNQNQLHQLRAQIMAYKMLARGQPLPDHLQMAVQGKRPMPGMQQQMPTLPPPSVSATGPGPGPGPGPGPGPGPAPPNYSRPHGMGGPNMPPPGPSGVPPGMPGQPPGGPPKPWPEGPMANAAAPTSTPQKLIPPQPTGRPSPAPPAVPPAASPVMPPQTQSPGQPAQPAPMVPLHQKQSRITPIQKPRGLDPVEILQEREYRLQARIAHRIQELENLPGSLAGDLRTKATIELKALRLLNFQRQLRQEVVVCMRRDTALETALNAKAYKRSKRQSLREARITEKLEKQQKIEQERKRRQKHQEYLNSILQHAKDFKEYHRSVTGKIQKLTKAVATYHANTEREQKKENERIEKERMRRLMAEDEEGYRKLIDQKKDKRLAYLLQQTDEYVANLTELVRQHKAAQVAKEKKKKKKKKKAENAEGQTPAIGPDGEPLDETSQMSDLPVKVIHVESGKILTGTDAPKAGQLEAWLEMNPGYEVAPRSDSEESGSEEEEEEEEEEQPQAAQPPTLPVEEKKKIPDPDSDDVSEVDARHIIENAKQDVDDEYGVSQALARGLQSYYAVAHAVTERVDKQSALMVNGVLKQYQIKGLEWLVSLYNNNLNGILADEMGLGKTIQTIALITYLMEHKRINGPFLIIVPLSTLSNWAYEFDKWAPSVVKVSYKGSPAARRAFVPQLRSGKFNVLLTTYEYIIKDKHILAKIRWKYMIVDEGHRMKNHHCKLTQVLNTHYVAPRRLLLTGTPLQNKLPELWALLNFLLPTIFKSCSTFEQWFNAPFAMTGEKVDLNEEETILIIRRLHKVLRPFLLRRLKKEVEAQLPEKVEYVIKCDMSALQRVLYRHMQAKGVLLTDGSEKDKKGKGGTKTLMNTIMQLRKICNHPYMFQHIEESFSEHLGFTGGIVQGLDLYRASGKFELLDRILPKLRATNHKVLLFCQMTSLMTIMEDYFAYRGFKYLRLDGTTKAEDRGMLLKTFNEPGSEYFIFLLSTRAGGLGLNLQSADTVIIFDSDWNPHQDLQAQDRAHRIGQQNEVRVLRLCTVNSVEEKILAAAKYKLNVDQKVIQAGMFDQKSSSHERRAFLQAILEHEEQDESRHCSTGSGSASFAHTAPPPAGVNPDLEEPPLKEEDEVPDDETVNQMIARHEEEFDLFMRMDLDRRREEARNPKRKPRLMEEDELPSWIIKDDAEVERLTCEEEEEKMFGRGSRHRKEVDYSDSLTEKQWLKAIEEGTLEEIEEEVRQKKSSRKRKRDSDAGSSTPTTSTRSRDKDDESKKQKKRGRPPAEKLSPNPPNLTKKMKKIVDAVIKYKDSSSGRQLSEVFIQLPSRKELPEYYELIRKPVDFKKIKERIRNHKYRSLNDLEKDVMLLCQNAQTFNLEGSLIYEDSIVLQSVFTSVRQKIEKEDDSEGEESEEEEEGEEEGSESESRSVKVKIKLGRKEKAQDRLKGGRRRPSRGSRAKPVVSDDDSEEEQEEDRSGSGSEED
Chain of SMARCA2 (P51531 whole entry): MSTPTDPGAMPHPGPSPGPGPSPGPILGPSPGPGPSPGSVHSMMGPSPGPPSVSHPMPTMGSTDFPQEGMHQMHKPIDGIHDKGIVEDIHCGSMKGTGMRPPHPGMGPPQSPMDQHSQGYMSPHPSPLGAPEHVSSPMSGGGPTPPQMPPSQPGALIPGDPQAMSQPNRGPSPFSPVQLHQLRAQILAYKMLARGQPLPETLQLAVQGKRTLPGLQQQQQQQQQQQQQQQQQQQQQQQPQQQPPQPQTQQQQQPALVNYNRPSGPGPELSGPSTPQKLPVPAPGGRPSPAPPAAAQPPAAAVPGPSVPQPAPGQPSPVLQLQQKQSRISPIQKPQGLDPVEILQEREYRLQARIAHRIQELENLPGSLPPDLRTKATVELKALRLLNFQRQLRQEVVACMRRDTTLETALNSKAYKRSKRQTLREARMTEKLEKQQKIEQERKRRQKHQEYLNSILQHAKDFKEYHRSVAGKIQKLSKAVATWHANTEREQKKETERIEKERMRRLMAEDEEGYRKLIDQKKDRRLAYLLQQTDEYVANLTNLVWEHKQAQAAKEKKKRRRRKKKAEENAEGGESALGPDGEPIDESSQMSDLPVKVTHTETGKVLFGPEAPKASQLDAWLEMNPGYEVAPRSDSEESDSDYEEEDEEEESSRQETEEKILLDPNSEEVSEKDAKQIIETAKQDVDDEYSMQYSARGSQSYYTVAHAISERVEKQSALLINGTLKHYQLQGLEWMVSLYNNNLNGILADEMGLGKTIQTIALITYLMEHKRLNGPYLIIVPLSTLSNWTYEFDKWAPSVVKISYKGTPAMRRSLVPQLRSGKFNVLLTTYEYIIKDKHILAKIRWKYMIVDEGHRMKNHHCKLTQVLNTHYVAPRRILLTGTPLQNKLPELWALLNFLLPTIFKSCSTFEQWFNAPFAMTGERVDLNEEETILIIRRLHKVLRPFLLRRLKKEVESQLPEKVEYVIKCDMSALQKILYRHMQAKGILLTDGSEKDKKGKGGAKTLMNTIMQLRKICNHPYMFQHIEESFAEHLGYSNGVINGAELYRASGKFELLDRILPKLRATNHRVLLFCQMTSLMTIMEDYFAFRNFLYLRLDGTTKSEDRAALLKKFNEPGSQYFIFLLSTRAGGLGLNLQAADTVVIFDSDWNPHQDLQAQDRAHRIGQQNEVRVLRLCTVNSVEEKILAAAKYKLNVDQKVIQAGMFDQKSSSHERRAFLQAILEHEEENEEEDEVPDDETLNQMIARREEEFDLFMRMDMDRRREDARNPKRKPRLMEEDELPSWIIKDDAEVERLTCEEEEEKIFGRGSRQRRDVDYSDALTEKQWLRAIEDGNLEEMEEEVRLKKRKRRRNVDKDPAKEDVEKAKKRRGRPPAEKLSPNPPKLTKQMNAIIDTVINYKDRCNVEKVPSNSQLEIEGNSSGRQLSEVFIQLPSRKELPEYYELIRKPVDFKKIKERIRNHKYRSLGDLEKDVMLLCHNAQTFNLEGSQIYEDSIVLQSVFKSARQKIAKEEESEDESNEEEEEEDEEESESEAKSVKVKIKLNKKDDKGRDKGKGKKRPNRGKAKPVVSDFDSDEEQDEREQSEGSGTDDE

As for `Cn1c(=O)n(C2CCC(=O)NC2=O)c2ccc(CC(=O)N3CCN(Cc4cnc(N5C6CCC5CN(c5cc(-c7ccccc7O)nnc5N)C6)nc4)CC3)cc21` (stereo not shown) [I-294], the Dmax at SMARCA2 and on SMARCA4 was > 90% in each case. Also, the 50% degradation concentration (DC50) at SMARCA2 and at SMARCA4 was < 0.1 µM throughout.

Take `Cn1c(=O)n(C2CCC(=O)NC2=O)c2ccc(C#CCCNC(=O)Cc3cnc(N4C5CCC4CN(c4cc(-c6ccccc6O)nnc4N)C5)nc3)cc21` (stereo not shown) [I-295]: the maximal degradation (Dmax) at SMARCA2 and at SMARCA4 was < 50% each time. For the same compound, the DC50 – broadly, the concentration giving 50% degradation – on SMARCA2 is > 1 µM; on SMARCA4, < 0.1 µM.

For the compound `Cn1c(=O)n(C2CCC(=O)NC2=O)c2ccc(CCCCNC(=O)Cc3cnc(N4C5CCC4CN(c4cc(-c6ccccc6O)nnc4N)C5)nc3)cc21` (stereo not shown) [I-296], at SMARCA2, the Dmax (in general, the largest share of the target that was removed) is > 90% and the DC50 was < 0.1 µM. Moreover, at SMARCA4, the maximal degradation (Dmax) lay in the range of 70 to 90% and the half-maximal degradation concentration (DC50) is < 0.1 µM.

In the case of `CN1C(=O)CCC(n2c(=O)n(C)c3cc(CCCN4CCC(c5cnc(N6C7CCC6CN(c6cc(-c8ccccc8O)nnc6N)C7)nc5)CC4)ccc32)C1=O` (stereo not shown) [I-297], on SMARCA2, the maximal degradation (Dmax) is < 50% and the 50% degradation concentration (DC50) is > 1 µM. On SMARCA4, the Dmax was < 50%.

Take `CN(CCCC#Cc1cnc(N2C3CCC2CN(c2cc(-c4ccccc4O)nnc2N)C3)nc1)Cc1ccc2c(c1)n(C)c(=O)n2C1CCC(=O)NC1=O` (stereo not shown) [I-298]: at SMARCA2, the Dmax was > 90% and the DC50 was < 0.1 µM. Moreover, at SMARCA4, the Dmax was > 90% and the DC50 was < 0.1 µM.

For `CN(CCCc1cnc(N2C3CCC2CN(c2cc(-c4ccccc4O)nnc2N)C3)nc1)Cc1cccc2c1n(C)c(=O)n2C1CCC(=O)NC1=O` (stereo not shown) [I-299], at SMARCA2, the maximal degradation (Dmax) is > 90% and the DC50 was < 0.1 µM. Further, at SMARCA4, the Dmax is > 90% and the 50% degradation concentration (DC50) is < 0.1 µM.

Turning to `Cn1c(=O)n(C2CCC(=O)NC2=O)c2cccc(C#CCN3CCCC(c4cnc(N5C6CCC5CN(c5cc(-c7ccccc7O)nnc5N)C6)nc4)C3)c21` (stereo not shown) [I-300], at SMARCA2, the Dmax was > 90% and the half-maximal degradation concentration (DC50) is < 0.1 µM. Besides, on SMARCA4, the greatest degradation seen (Dmax) lay within 70 to 90% and the 50% degradation concentration (DC50) is < 0.1 µM.

As to `Cn1c(=O)n(C2CCC(=O)NC2=O)c2ccc(CCCCCCCCCNC(=O)c3cccc(C#Cc4cc(NC(=O)Nc5ccnc(Cl)c5)ccn4)c3)cc21` (stereo not shown) [I-301, 3-[2-[4-[(2-chloro-4-pyridyl)carbamoylamino]-2-pyridyl]ethynyl]-N-[9-[1-(2,6-dioxo-3-piperidyl)-3-methyl-2-oxo-benzimidazol-5-yl]nonyl]benzamide], the Dmax on SMARCA2 and at SMARCA4 was < 50% in each case. For the same compound, the DC50 on SMARCA2 and on SMARCA4 was 0.1 to 0.5 µM each time.

In the case of `Cc1ncsc1-c1ccc(CNC(=O)[C@@H]2C[C@@H](O)CN2C(=O)[C@@H](NC(=O)CN2CCC(c3nccc(N4C5CCC4CN(c4cc(-c6ccccc6O)nnc4N)C5)n3)CC2)C(C)(C)C)cc1` [I-450], on SMARCA2, the Dmax was < 50% and the DC50 is 0.1 to 0.5 µM. At SMARCA4, the Dmax lay in the range of 50 to 70% and the half-maximal degradation concentration (DC50) lay within 0.1 to 0.5 µM.

For `Cc1ncsc1-c1ccc(CNC(=O)[C@@H]2C[C@@H](O)CN2C(=O)[C@@H](NC(=O)CN2CCC(c3cnc(N4CCN(c5cc(-c6ccccc6O)nnc5N)CC4)nc3)CC2)C(C)(C)C)cc1` [I-451], the results for the greatest degradation seen (Dmax) at SMARCA2 and at SMARCA4 were > 90% and 70 to 90%, respectively. Also, the 50% degradation concentration (DC50) on SMARCA2 and on SMARCA4 was 0.1 to 0.5 µM throughout.

Turning to `Cc1ncsc1-c1ccc(CNC(=O)[C@@H]2C[C@@H](O)CN2C(=O)[C@@H](NC(=O)CN2CCCC(n3cc(-c4cc(-c5ccccc5O)nnc4N)cn3)C2)C(C)(C)C)cc1` (stereo partly shown) [I-452], on SMARCA2, the Dmax is < 50% and the half-maximal degradation concentration (DC50) is > 1 µM. Also, at SMARCA4, the maximal degradation (Dmax) was < 50% and the DC50 was 0.1 to 0.5 µM.

Regarding `Cc1ncsc1-c1ccc(CNC(=O)[C@@H]2C[C@@H](O)CN2C(=O)[C@@H](NC(=O)CCCCCN2CCCC(n3cc(-c4cc(-c5ccccc5O)nnc4N)cn3)C2)C(C)(C)C)cc1` (stereo partly shown) [I-456], the greatest degradation seen (Dmax) at SMARCA2 and on SMARCA4 was < 50% each time. In addition, the results for the half-maximal degradation concentration (DC50) at SMARCA2 and on SMARCA4 were > 1 µM and 0.1 to 0.5 µM, respectively.

Consider `Cc1ncsc1-c1ccc(CNC(=O)[C@@H]2C[C@@H](O)CN2C(=O)[C@@H](NC(=O)CN2CCC(n3cc(-c4cc(-c5ccccc5O)nnc4N)cn3)CC2)C(C)(C)C)cc1` [I-457], for which, on SMARCA2, the Dmax lay in the range of 70 to 90% and the half-maximal degradation concentration (DC50) lay within 0.501 to 1 µM. At SMARCA4, the maximal degradation (Dmax) lay within 70 to 90% and the DC50 fell in the range of 0.1 to 0.5 µM.

Turning to `Cc1ncsc1-c1ccc(CNC(=O)[C@@H]2C[C@@H](O)CN2C(=O)[C@@H](NC(=O)CCCN2CCC(n3cc(-c4cc(-c5ccccc5O)nnc4N)cn3)CC2)C(C)(C)C)cc1` [I-459], at SMARCA2, the maximal degradation (Dmax) is < 50% and the 50% degradation concentration (DC50) fell in the range of 0.1 to 0.5 µM. On SMARCA4, the Dmax is < 50% and the 50% degradation concentration (DC50) was 0.1 to 0.5 µM.

As to `Cc1ncsc1-c1ccc(CNC(=O)[C@@H]2C[C@@H](O)CN2C(=O)[C@@H](NC(=O)CCCCN2CCC(n3cc(-c4cc(-c5ccccc5O)nnc4N)cn3)CC2)C(C)(C)C)cc1` [I-460], the Dmax on SMARCA2 and at SMARCA4 was < 50% in each case. Further, the 50% degradation concentration (DC50) on SMARCA2 and at SMARCA4 was 0.1 to 0.5 µM throughout.

Take `Cc1ncsc1-c1ccc(CNC(=O)[C@@H]2C[C@@H](O)CN2C(=O)[C@@H](NC(=O)CCCCCN2CCC(n3cc(-c4cc(-c5ccccc5O)nnc4N)cn3)CC2)C(C)(C)C)cc1` [I-461]: at SMARCA2, the Dmax was 50 to 70% and the DC50 fell in the range of 0.501 to 1 µM. On SMARCA4, the maximal degradation (Dmax) is 50 to 70% and the DC50 lay in the range of 0.1 to 0.5 µM.

For `Cc1ncsc1-c1ccc(CNC(=O)[C@@H]2C[C@@H](O)CN2C(=O)[C@@H](NC(=O)CN2CCC(Cn3cc(-c4cc(-c5ccccc5O)nnc4N)cn3)CC2)C(C)(C)C)cc1` [I-465], the greatest degradation seen (Dmax) at SMARCA2 and at SMARCA4 was < 50% each time. The DC50 on SMARCA2 is > 1 µM; at SMARCA4 it was 0.1 to 0.5 µM.

`Cc1ncsc1-c1ccc(CNC(=O)[C@@H]2C[C@@H](O)CN2C(=O)[C@@H](NC(=O)CCCN2CCC(Cn3cc(-c4cc(-c5ccccc5O)nnc4N)cn3)CC2)C(C)(C)C)cc1` [I-467]: on SMARCA2, the maximal degradation (Dmax) is < 50% and the half-maximal degradation concentration (DC50) fell in the range of 0.1 to 0.5 µM. Also, on SMARCA4, the maximal degradation (Dmax) was < 50% and the half-maximal degradation concentration (DC50) is 0.1 to 0.5 µM.

For the compound `Cc1ncsc1-c1ccc(CNC(=O)[C@@H]2C[C@@H](O)CN2C(=O)[C@@H](NC(=O)CCCCN2CCC(Cn3cc(-c4cc(-c5ccccc5O)nnc4N)cn3)CC2)C(C)(C)C)cc1` [I-468], at SMARCA2, the Dmax is < 50% and the DC50 is > 1 µM. At SMARCA4, the Dmax is < 50% and the DC50 lay in the range of 0.1 to 0.5 µM.

For the compound `Cc1ncsc1-c1ccc(CNC(=O)[C@@H]2C[C@@H](O)CN2C(=O)[C@@H](NC(=O)CN2CCC[C@@H](Cn3cc(-c4cc(-c5ccccc5O)nnc4N)cn3)C2)C(C)(C)C)cc1` [I-469], on SMARCA2, the maximal degradation (Dmax) is < 50% and the DC50 fell in the range of 0.1 to 0.5 µM. At SMARCA4, the Dmax is 50 to 70% and the DC50 fell in the range of 0.1 to 0.5 µM.

Turning to `Cc1ncsc1-c1ccc(CNC(=O)[C@@H]2C[C@@H](O)CN2C(=O)[C@@H](NC(=O)CCCCN2CCC[C@@H](Cn3cc(-c4cc(-c5ccccc5O)nnc4N)cn3)C2)C(C)(C)C)cc1` [I-472], on SMARCA2, the Dmax is < 50% and the DC50 lay in the range of 0.1 to 0.5 µM. Besides, on SMARCA4, the maximal degradation (Dmax) is 50 to 70% and the DC50 is 0.1 to 0.5 µM.

For the compound `Cc1ncsc1-c1ccc(CNC(=O)[C@@H]2C[C@@H](O)CN2C(=O)[C@@H](NC(=O)CN2CCN(Cc3ccc(-c4cc(-c5ccccc5O)nnc4N)cc3)CC2)C(C)(C)C)cc1` [I-473], at SMARCA2, the Dmax was < 50% and the DC50 was in the range of 0.1 to 0.5 µM. Besides, at SMARCA4, the maximal degradation (Dmax) is < 50% and the DC50 is 0.1 to 0.5 µM.

With `Cc1ncsc1-c1ccc(CNC(=O)[C@@H]2C[C@@H](O)CN2C(=O)[C@@H](NC(=O)CCCCN2CCN(Cc3ccc(-c4cc(-c5ccccc5O)nnc4N)cc3)CC2)C(C)(C)C)cc1` [I-476], the Dmax at SMARCA2 was < 50%; at SMARCA4, 50 to 70%. In addition, the DC50 on SMARCA2 and on SMARCA4 was 0.1 to 0.5 µM throughout.

The values are drawn from US12624044B2, “SMARCA degraders and uses thereof” (Kymera Therapeutics, Inc., priority 2019, dated 2026).
